In assay [1] the test system is LNCaP cells. The assay can be described thus: Growth inhibition assay in LNCaP cells. As to conditions: Table 3, assay B2. It is filed as cell-based, human. The text has this: (§1) Several cancer cell lines were used to determine the activity of PKB inhibitor compounds in intact cells. The human prostate carcinoma cell lines, PC-3 and LNCaP. The human acute T cells leukemia cell line, Jurkat. Human breast carcinoma cell lines: MCF-7 and MDA468 and renal adenocarcinoma cell 786-O. LNCaP,MDA468, 786-O and Jurkat cell lines express high basal level of activated PKB. PC-3 expresses moderate level of activated PKB. MCF-7 expresses low but inducible level of activated PKB. Control cells are PBLs, normal peripheral blood lymphocytes which obtained from normal donors (blood bank) and MCF10F which is a non tumorogenic breast cell line. […]
(§2) Cells were fixed by 0.5% glutardialdehyde followed by staining with 1% methylene blue in borate buffer (Sigma) for one hour. […] Quantitation of color intensity was performed by measurement of the optical density at 600 nm by ELISA reader. […]
(§3) At the appropriate time in culture 1uci of 3H-thymidine (stock of 5 Ci/mmole, Amersham) was added to each well containing 100 μl of medium for 5 hours. […] The radioactivity was counted using microplate counter, Packard TopCount.
(§4) Fifty percent inhibitory concentration (IC50) values were calculated using nonlinear regression in one site competition model with GraphPad Prism version 3.03 Windows (GraphPad Software, San Diego, USA)

Assay [2] relates to PC3 cells. The experiment in a line: Growth inhibition assay in PC3 cells. The format is cell-based, human. As to conditions: 50 μM.
Text: as §1, §2, §3, §4

Assay [3] concerns the target T1, PKB (Homo sapiens, UniProt P31749).
T1 construct: His; HA; made in house
The assay can be described thus: PKB in vitro kinase activity assay. The format is biochemical.

In assay [4] the test system is prostate cancer cell lines. The experiment in a line: Growth inhibition assay, combination with chemotherapeutic agents.
Procedure: The chemotherapeutic agents used are: Mitoxantrone hydrochloride (Novantrone, Wyeth Lederle S.p.A. Catania, Italy) supplied as a sterile aqueous solution of 3.8 mM. Doxorubicin, Etoposide and Vinblastine sulfate salt (Sigma) were dissolved in 100% DMSO to prepare stock solutions at concentration of 10 mM. Docetaxel (Taxpter, Aventis) stock solution of 11.6 mM in polysorbate 80. These agents were diluted in medium just before use for in vitro studies.
Cells were incubated for five days in the present of the drugs followed by fixation and staining of cells with methylene blue.
Assay [5] concerns Prostate cancer PC3 and LNCaP, T-cell leukemia Jurkat, and breast cancer MCF-7. The assay can be described thus: Cellular activity in the relevant cancer cell lines. The format is cell-based, human. An excerpt: (§5) Several cancer cell lines were used to determine the activity of PKB inhibitor compounds in intact cells. The human prostate carcinoma cell lines, PC-3 and LNCaP. The human acute T cells leukemia cell line, Jurkat. Human breast carcinoma cell lines: MCF-7 and MDA468 and renal adenocarcinoma cell 786-O. LNCaP,MDA468, 786-O and Jurkat cell lines express high basal level of activated PKB. PC-3 expresses moderate level of activated PKB. MCF-7 expresses low but inducible level of activated PKB. Control cells are PBLs, normal peripheral blood lymphocytes which obtained from normal donors (blood bank) and MCF10F which is a non tumorogenic breast cell line. The control cells are used to compare the effect of the protein kinase inhibitors on the tested cancer cells and the normal cells.
Selected peptide conjugates, which were found active in the enzyme-inhibition assays were screened for their ability to inhibit growth of tumor cell lines. Screening for inhibitory compounds was done, initially, at concentration of 50 μM. Active compounds from the first screening were further tested at different concentrations (50, 25, 12.5, 6.25, 3.125 and 1.56 μM) in order to determine their IC50. Growth inhibition was tested using two methods: A. staining of viable cells with methylene blue, B. incorporation of ^3H-thymidine. For both methods cells were grown in 96-well plates: LNCaP, 5000 cell per well for 72 hours, PC3, 5000 cells per well for 48 hours Jurkat, MDA468, and 786-O, 2500, 5000 and 1000 cells per well respectively for 24 hours, before tested compounds were added. The assays were done in triplicates for one to six days.
In addition, some of the new conjugates were also 10-20 times selective for PKB over PKA in contrast to previously described chimeric compounds. • 1. […] From the peptide transporter conjugates, 96 compounds were tested all were very active in the in-vitro kinase assay and very selective 10-50 fold, however only few were active in cells. The selected 6 active conjugates show 8-20 μM activity in cells.

Assay [6] relates to PC3 tumor xenograft. The experiment in a line: Efficacy study in mice bearing PC3 tumor, systemic administration. It is filed as in vivo. As for the experimental part: b. Human prostatic PC-3 cancer cells are grafted subcutaneously in 5 weeks old male nude Balb/c mice of approximately 20 g. Each mouse will receive 2.5×10^6cells at Day 0. Intraperitoneal (i.p.) treatment is initiated when tumour volume reaches approximately 50 mm^3. I.p. administration is highly acceptable in preliminary experiments, and exemplifies the stability in the blood and liver, and the distribution through the blood into the tumor. The control groups is treated with the vehicle 10% DMSO -90% 2-hydroxypropyl-beta-cyclodextrin at 1×10^−2M in sterile saline. Tumour volume measurements with callipers (equation=length×width^2×0.4) and body weights are recorded 3 times weekly on Mondays, Wednesdays and Fridays. Mice are monitored twice daily for general health status. Mice are sacrificed when the tumour mass in the respective vehicle treated groups reaches approximately 20% of the body weight or if this should not be obtained, 3 weeks after the end of the treatment. At the end of the experiment, the tumours of the 3 first sacrificed mice in each group are collected and embedded in paraffin blocks for further histological examination. The remaining tumours are collected and frozen in liquid nitrogen for western blot analysis.
Although the peptide dose was 3.3 mg/kg the MTD for this compound is 40 times higher, indicating a high therapeutic index. • b. Two concentrations were tested, 66 mg/kg and 33 mg/kg, which are 0.5 and 0.25 of the MTD. The relatively high doses were selected because we had no previous knowledge on the pharmacokinetics of the compound, and we wanted to obtain maximum effect, although we expected that toxic effects might occur as a result of the high dosing.
The compounds were dissolved in a solution of 10% DMSO/90% cyclodextrin in physiological saline. Six groups of 9 mice in each were tested. Two groups received the compound i.v, every 48 hours, and two groups received it daily, by i.p. injection. Treatment started at 7 days post graft, lasted for 21 days, followed by a 14-day observation period. The experiment consisted four experimental groups as in table 7:
It is clear that the effect of the inhibitors was very significant, despite the aggressiveness of the tumors.
Three tumors from each group were studies and a clear trend of increased apoptosis is observed in the treated tumors, implying induction of apoptosis through inhibition of PKB. Tumors were collected after the 14 days observation period in which no treatment was given, indicating long-term effect. The ratio between apoptosis to mitoses in tumor sections express the viability of the tumor. In a viable tissue mitotic process are dominant and apoptosis is minor while in dying tissue this ratio is reversed. […]

Assay [7] concerns PC3 tumor xenograft. The assay can be described thus: Efficacy study in mice bearing PC3 tumor, IT injection. It is filed as in vivo. As to conditions: high dose (3.3 mg/kg), every other day, second week, FIG. 8. As for the experimental part: C2. Efficacy Study in Mice Bearing PC3 Tumor
a. PC3 cells ([…]) were injected subcutaneously in matrigel, into hip area of Nude male mice (Harlan Co., Israel). Tumor size was determined by caliper using the formula: Length ×(width^2)×0.4. The tumors were allowed to grow to volume of about 50 mm 3 before the treatment was started. The appropriate doses of compounds were injected subcutaneously into the region surrounding the tumors (IT injection). The treatment was given 3 times a week; every other day for two weeks, and the tumor size was measured once every two days.
The high safety of PTR 6164 allows a very large therapeutic window. The conjugates were further tested in vivo in efficacy studies as described in C2 above: • a. The peptides were injected every other day, at the tumor area. After 3 injections, an indicative tendency of reduction in tumor size was observed.

The test system of assay [8] is PKB downstream substrates GSK3 and FKHR. The assay can be described thus: Inhibition of phosphorylation of PKB downstream substrates (Western blot). As to conditions: cancer cells. The format is cell-based, human. As for the experimental part:
B3. Inhibition of Phosphorylation of PKB and Downstream Substrates:
Peptide conjugates identified as inhibitors of PKB were further tested in cells for their ability to inhibit the phosphorylation of several PBK downstream substrates. The substrate GSK3 is associated with cell metabolism and cell cycle. Forkhead (FKHR) is directly associated with apoptosis. Inhibitory activity in these assays indicates also that the positive compounds penetrate into the cells.
Cells (2×10^6) were seeded in 25 cm^2 flasks grown for 2 days at normal medium conditions. Inhibitory compounds were added for 24 hrs and analyzed for their effect on PKB phosphorylation at Ser473 residue and on the phosphorylation of specific substrates of PKB, GSK3 and FKHR. At the end of the treatment cells were lysed using lysis buffer (20 mM Tris-HCl pH 7.4, 150 mM NaCl, 0.5% Triton-x100, 25 mM NaF, 2 mM AEBSF, 1 mM sodium orthovanadate, 10 mM β-glycerophosphate, 1 μg/ml aprotonin and 5 μg/ml leupeptin). Equal amounts of cell protein were resolved by 10% SDS-PAGE and electroblotted to PVDF membranes. Western blot analysis was performed using antibodies against phospho-Akt1 (Ser473), phospho-GSK3α (Ser21) and phosphor-FKHR (Thr24), which were obtained from Cell Signaling Technology and against Akt1 (Upstate), GSK3α (Transduction Laboratories), and FKHR (Cell Signaling Technology).

The test system of assay [9] is prostate cancer cell lines. The experiment in a line: Cell death and apoptosis in prostate cancer cell lines. The format is cell-based, human.
Text: as §5
Peptide conjugates, which are active in enzyme inhibition assays were tested in cells for induction of apoptosis of cancer cell lines. Apoptosis was assayed at least by two methods in each cell line. Cells were seeded at the appropriate plates for each method, treated with or without the inhibitory compounds for different time points and analyzed by one of the below methods.
Table 9 represents the cell death induced by the protein kinase inhibitors in prostate cancer cell lines vs. normal cells. […]

[10] abbreviates: 120 h, read-out: IC50 of chemotherapeutic agent alone.
Where [11] appears, read: read-out: IC50 of chemotherapeutic agent +PTR 6320, combined with 1.5 μM of PTR 6320, five days, methylene blue.
Where [12] appears, read: i.p. 33 mg/kg, tumors collected after the 14 days observation period.

Broadly, the IC50 is the concentration that inhibits the measured activity by half.

Structures can show the parent of a compound that is named as a salt. Where two headings read alike, the source gives them in different places. Some results are limits rather than exact numbers.

T1 sequence (P31749 whole entry, species assumed): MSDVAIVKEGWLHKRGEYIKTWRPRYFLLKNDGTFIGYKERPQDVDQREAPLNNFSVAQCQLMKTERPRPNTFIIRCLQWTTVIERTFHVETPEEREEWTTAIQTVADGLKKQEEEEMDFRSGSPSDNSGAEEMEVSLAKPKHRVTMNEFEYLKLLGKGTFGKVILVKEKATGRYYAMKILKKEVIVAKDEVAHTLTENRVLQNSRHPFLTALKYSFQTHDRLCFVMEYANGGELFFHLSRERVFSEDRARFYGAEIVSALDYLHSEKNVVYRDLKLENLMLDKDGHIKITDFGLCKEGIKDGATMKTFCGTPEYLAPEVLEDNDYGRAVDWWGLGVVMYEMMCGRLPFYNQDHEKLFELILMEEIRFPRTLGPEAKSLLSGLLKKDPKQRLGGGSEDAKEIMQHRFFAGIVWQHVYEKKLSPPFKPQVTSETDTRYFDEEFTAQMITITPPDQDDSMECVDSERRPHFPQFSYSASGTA

In assay [1], “Arg-Gln-Ile-Lys-Ile-Trp-Phe-Gln-Asn-Arg-Arg-Met-Lys-Trp-Lys-Lys-6184 [Peptide AB60025-4]” displayed a concentration for half-maximal inhibition (IC50) of 10000 nM. Besides, the “% Inhibition PC3 growth” value in [2] was determined as 52%. Besides, the results for the “% Inhibition PKB activity” value in assay [3] (1 μM) and in assay [3] (10 μM) were 80% and 96%, respectively.
For `COc1cc([C@@H]2c3cc4c(cc3[C@@H](O[C@@H]3O[C@@H]5CO[C@@H](C)O[C@H]5[C@H](O)[C@H]3O)[C@H]3COC(=O)[C@H]23)OCO4)cc(OC)c1O` [Etoposide], the IC50 in [4] (setting [10]) turned out to be 300 nM; in assay [4] (setting [11]) it was 17 nM.
In [5], “Vitamin E succinate-Arg-Pro-Arg-Nva-Tyr-Dap-Hol-NH2 [PTR 6244]” gave a cellular activity of 15 to 20 µM.
Regarding `CC(=O)O[C@@]12CO[C@@H]1C[C@H](O)[C@@]1(C)C(=O)[C@H](O)C3=C(C)[C@@H](OC(=O)[C@H](O)[C@@H](NC(=O)OC(C)(C)C)c4ccccc4)C[C@@](O)([C@@H](OC(=O)c4ccccc4)[C@H]21)C3(C)C` [Docetaxel], the IC50 in assay [4] (setting [10]) was determined as 0.6 nM; in assay [4] (setting [11]), 0.03 nM.
Consider `CC[C@]1(O)C[C@@H]2CN(CCc3c([nH]c4ccccc34)[C@@](C(=O)OC)(c3cc4c(cc3OC)N(C)[C@H]3[C@@](O)(C(=O)OC)[C@H](OC(C)=O)[C@]5(CC)C=CCN6CC[C@]43[C@@H]65)C2)C1` [Vinblastine], for which the figures for the IC50 in assay [4] (setting [10]) and in assay [4] (setting [11]) were 2.2 nM and 0.1 nM, respectively.
Turning to “Cholesteryl-O—CO-Arg-Pro-Arg-Nva-Tyr-Dap-Hol-NH2 [PTR 6164]”, the cellular activity in assay [5] came to 12 µM. Also, the “effect on tumor growth” value in assay [6] (daily i.p. injections, 66 mg/kg and 33 mg/kg, 21 days) was “significant inhibition of tumor growth”. Also, in assay [6] (setting [12]), the “Apoptosis in tumor sections” value was found to be 5.6 and the “Mitoses in tumor sections” value was determined as 3.4. Besides, in [6] (injections every 48 hours (i.v.), 66 mg/kg and 33 mg/kg), the “effect on tumor size” value is listed as “no effect on the tumor size”. Further, in assay [7], the “tumor regression after injection at the tumor area” value is on record as “four out of five animals showed complete regression of the tumor”. The “phosphorylation of GSK3 and FKHR” value in assay [8] is “decreases the phosphorylation of GSK3 and FKHR”.
Take `O=C1c2c(O)ccc(O)c2C(=O)c2c(NCCNCCO)ccc(NCCNCCO)c21` [Mitoxantrone, Mitoxantrone hydrochloride]: the IC50 in [4] (setting [10]) is 3.4 nM; in assay [4] (setting [11]), around 0.36 nM.
Take “Cholesteryl-O—CO-(DLys)3-Arg-Pro-Arg-Nva-Tyr-Dap-Hol-NH2 [PTR 6320]”: in assay [9] (cancer cells), the “concentration inducing apoptosis in cancer cells” value came to 3 µM. Further, the “efficacy / potency in cellular assays relative to PTR 6164” value in assay [9] (compared with prototype PTR 6164) was “five times better efficacy”. Moreover, in [3] (protein kinase B vs. protein kinase A, FIG. 11), the “improved in vitro selectivity in comparison to PTR 6164” value is on record as “about 20 times”.
“Arg-Gln-Ile-Lys-Ile-Trp-Phe-Gln-Asn-Arg-Arg-Met-Lys-Trp-Lys-Lys-6154 [Peptide AB60025-2]” yielded an IC50 in assay [1] below 12500 nM. Besides, in [2], the “% Inhibition PC3 growth” value was found to be 60%. Further, the “% Inhibition PKB activity” value in assay [3] (1 μM) is 60%; in assay [3] (10 μM), 92%.
On to “Ahx6-DArg-DArg-DArg-DArg-DGln-DArg-DArg-DLys-DLys-DArg-6154 [Peptide AB60025-54]”, for which the “% Inhibition PKB activity” value is reported as 95% in assay [3] (1 μM) and 97% in assay [3] (10 μM).
For the compound `COc1cccc2c1C(=O)c1c(O)c3c(c(O)c1C2=O)C[C@@](O)(C(=O)CO)C[C@@H]3O[C@H]1C[C@H](N)[C@H](O)[C@H](C)O1` [Doxorubicine, Doxorubicin], the IC50 in [4] (setting [10]) is 13 nM; in assay [4] (setting [11]), 1.1 nM.
In [5], “Myristyl-Gly-Arg-Pro-Arg-Nva-Tyr-Dap-Hol-NH2 [PTR 6180]” returned a cellular activity of 25 to 50 µM.
